What was measured:
[1] = target: T1, stromal cell-derived factor-1β (Homo sapiens, UniProt P48061); experiment: ELISA, biotinylated versican binding to SDF-1β in presence of glycosaminoglycan; details: 100 μg/ml glycosaminoglycan; FIG. 5
T1 construct: purchased Pepro Tech
Method: A well of a 96 well flat bottom microtiter plate was coated with BSA (5 μg/ml), anti-versican monoclonal antibody 2B1 (5 μg/ml), CD44-Ig (7 μg/ml), L-selectin-Ig (3 μg/ml), P-selectin-Ig (3 μg/ml) or chemokine (1 μg/ml), and then blocked with a phosphate buffered physiological saline containing 3% by weight of BSA. As the above chemokine, secondary lymphoid tissue chemokine, γ-interferon inducible protein-10, platelet factor 4, stromal cell-derived factor-1β [manufactured by Pepro Tech] and stromal cell-derived factor-1α [manufactured by Pepro Tech] were used.
Thereafter, the plate was washed with the buffer A, and enzyme-linked immunosorbent assay was performed in the same manner as that of the previous report [Kawashima, H. et al., J. Biol. Chem., 275, 35448-35456 (2000)]. Binding was determined by measuring absorbance at 620 nm using alkaline phosphatase-conjugated streptavidin and Blue Phos™ substrate. In FIG. 5, expression of an abscissa axis is the same as that of FIG. 4.

monomeric CD44 = target: T2, monomeric CD44 (Homo sapiens, UniProt P16070); experiment: BIAcore surface plasmon resonance, immobilized glycosaminoglycan vs monomeric CD44; assay type: binding
T2 construct: codons of amino acids positions 172 to 178 of human CD44; Myc-His (from vector pcDNA 3.1/Myc-His(+) B) (C); made in house; host or cells: 293T cells, secreted into conditioned medium and purified on anti-CD44 BRIC 235 Sepharose
Method: Human-derived CD44 cDNA was prepared by PCR using a sense primer (SEQ ID NO: 1):
Thereafter, the conditioned medium was subjected to immunoaffinity chromatography with anti-CD44 monoclonal antibody BRIC 235-coupled CNBr-activated Sepharose 4B, to obtain monomeric CD44. The resulting soluble CD44 was subjected to SDS-PAGE and silver staining. As a result, the purity of the resulting soluble CD44 was more than 95%.
(§1) Affinity kinetics of the interaction between various CS/DS chains and each of L-selectin, P-selectin, CD44 and chemokine were examined by surface plasmon resonance using BIAcore™ biosensor [manufactured by BIAcore AB].
(§2) All experiments were performed at 25° C. At stages of washing and dissociation, buffer C (20 mM HEPES-NaOH, 0.15M NaCl, 1 mM CaCl2, 1 mM MgCl2, pH6.8) was used as a running buffer.
(§3) First, about 1.8 to 2.0 kiloresonance unit (1 kiloresonance unit=1 ng/mm^2) of streptavidin were covalently immobilized onto B1 sensor chip via a primary amine group using an amine coupling kit [manufactured by Amercham-Bioscience] according to the instruction provided by the manufacturer. The remaining activated groups were blocked with 150 μl of 1M ethanolamine-HCl (pH8.5). Then, each glycosaminoglycan which had been biotinylated at a reducing end was injected to a sensor tip surface by using EZ-link™ biotin-LC-hydrazide [manufactured by Pierce] so as to obtain about 150 resonance unit of an immobilization level, according to the method of Sadir et al. [J. Biol. Chem., 276, 8288-8296 (2001); all teachings of which are hereby incorporated by reference].
(§4) Binding assay was performed by injecting continuously each of various concentrations of secondary lymphoid tissue chemokine, γ-interferon inducible protein-10, stromal cell-derived factor-1β, monomeric L-selectin [manufactured by Genzyme-Techne], monomeric P-selectin [manufactured by Genzyme-Techne] and monomeric CD44, to a glycosaminoglycan-coupled sensor tip at a flow rate of 30 μl/min for 0 to 90 seconds, and then injecting a running buffer thereto. A response in resonance unit was recorded as a function of a time.
(§5) A sensor tip surface was regenerated with 300 μl of 1 M NaCl when chemokine or CD44 was used, or regenerated with 300 μl of 1 M NaCl, and additional 100 μl of 50 mM EDTA (pH8.0), when selectin was used. As a result of regeneration of a sensor tip surface, a remarkable change in a baseline was not observed.
(§6) An affinity kinetic parameter was determined by BIAevaluation 3.0 software [manufactured by Pharmacia Biosensor] using a single site binding model. […] In FIG. 6 and Table 3, SLC denotes secondary lymphoid tissue chemokin, IP-10 denotes γ-interferon inducible protein-10, SDF-1β denotes stromal cell-derived factor-1β, CS E denotes chondroitin sulfate E, and CS A denotes chondroitin sulfate A. In addition, in Table 3, Kd value for the interaction between monomeric CD44 and chondroitin sulfate E is a value calculated from a binding amount at equilibrium, and Kd value of the interaction between CD44 and hyaluronic acid is a value calculated using CD44-Ig.

monomeric P-selectin = target: T3, monomeric P-selectin (Homo sapiens, UniProt P16109); experiment: BIAcore surface plasmon resonance, immobilized glycosaminoglycan vs monomeric P-selectin; assay type: binding; details: for Kd / koff / kon: P-selectin, GAG immobilized, 25° C.; for interaction with immobilized glycosaminoglycan (sensorgram): monomeric P-selectin
T3 construct: purchased Genzyme-Techne
T3 sequence (P16109 42-771 limits assumed): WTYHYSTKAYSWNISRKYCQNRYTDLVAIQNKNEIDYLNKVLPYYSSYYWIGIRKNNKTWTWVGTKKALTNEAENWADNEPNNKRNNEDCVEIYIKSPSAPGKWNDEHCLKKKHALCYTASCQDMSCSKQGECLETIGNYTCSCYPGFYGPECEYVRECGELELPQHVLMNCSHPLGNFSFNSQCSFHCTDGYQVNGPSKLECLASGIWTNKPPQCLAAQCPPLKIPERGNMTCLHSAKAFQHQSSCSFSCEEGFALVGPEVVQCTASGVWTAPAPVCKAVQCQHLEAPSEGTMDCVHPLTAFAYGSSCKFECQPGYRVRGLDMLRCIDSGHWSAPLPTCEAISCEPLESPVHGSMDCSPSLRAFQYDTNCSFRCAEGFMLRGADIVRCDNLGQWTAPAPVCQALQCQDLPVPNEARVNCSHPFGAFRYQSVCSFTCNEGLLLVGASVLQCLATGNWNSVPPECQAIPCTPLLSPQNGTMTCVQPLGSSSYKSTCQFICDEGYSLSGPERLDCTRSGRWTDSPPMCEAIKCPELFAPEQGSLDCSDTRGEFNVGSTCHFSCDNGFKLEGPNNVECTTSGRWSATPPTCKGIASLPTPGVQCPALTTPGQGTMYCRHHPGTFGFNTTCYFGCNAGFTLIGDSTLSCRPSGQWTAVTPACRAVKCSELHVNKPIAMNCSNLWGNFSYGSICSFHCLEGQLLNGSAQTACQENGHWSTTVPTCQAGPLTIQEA
Method: as §1, §2, §3, §4, §5, §6

[2] = system: secondary lymphoid tissue chemokine; experiment: BIAcore surface plasmon resonance, immobilized glycosaminoglycan vs SLC; assay type: binding; details: for Kd / koff / kon: GAG immobilized, 25° C.
Method: as §1, §2, §3, §4, §5, §6

[3] = CD44 monomeric, GAG immobilized, 25° C.

T2 sequence (P16070 21-178 limits assumed): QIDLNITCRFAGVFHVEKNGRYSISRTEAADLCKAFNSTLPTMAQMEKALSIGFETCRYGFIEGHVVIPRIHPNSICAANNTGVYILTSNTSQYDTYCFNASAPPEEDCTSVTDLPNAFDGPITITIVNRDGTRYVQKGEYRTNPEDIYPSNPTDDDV
T1 sequence (P48061 22-93): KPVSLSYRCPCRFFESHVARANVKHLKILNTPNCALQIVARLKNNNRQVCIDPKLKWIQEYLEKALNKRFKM

Substance	inhibition of binding between biotinylated versican and stromal cell-derived factor-1β [1]	Kd (monomeric CD44; monomeric CD44, weakly bound, equilibrium value)	Kd (monomeric P-selectin)	koff (monomeric P-selectin)	kon (monomeric P-selectin)	interaction with immobilized glycosaminoglycan (sensorgram) (monomeric P-selectin)	interaction with immobilized glycosaminoglycan (sensorgram) [2]	Kd [2]	koff [2]	kon [2]	Kd (monomeric CD44; [3])	koff (monomeric CD44; [3])	kon (monomeric CD44; [3])	binding of monomeric CD44 to glycosaminoglycan (monomeric CD44; monomeric CD44)
chondroitin sulfate E [CS E]	inhibited	211000 nM	29.7 nM	0.00125 s⁻¹	42100 M⁻¹ s⁻¹	bound	bound	85.8 nM	0.00356 s⁻¹	41500 M⁻¹ s⁻¹	–	–	–	–
chondroitin sulfate A [CS A]	–	–	–	–	–	did not interact	did not interact	–	–	–	85200 nM	0.049 s⁻¹	576 M⁻¹ s⁻¹	–
dermatan polysulfate [DPS]	inhibited	–	–	0.000664 s⁻¹	24000 M⁻¹ s⁻¹	–	–	32.2 nM	0.000278 s⁻¹	8640 M⁻¹ s⁻¹	–	–	–	did not bind
chondroitin polysulfate [CPS]	inhibited	–	56.8 nM	0.000759 s⁻¹	13400 M⁻¹ s⁻¹	–	–	101 nM	0.00244 s⁻¹	24200 M⁻¹ s⁻¹	–	–	–	did not bind

From patent US20060211651A1, “Persulfated oligosaccharide acting on selectins and chemokine” (Taisho Pharmaceutical Co., Ltd., priority 2002, published 2006)
